Assay results taken from article PMC5513037, “Examining the influence of specificity ligands and ATP-competitive ligands on the overall effectiveness of bivalent kinase inhibitors” (Proteome Science, 2017).

Legend:
Test in all cases: KAM-matrix competition in K562 lysate;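 as to 0.001 uM KAM: median log10 fold change of treatment over DMSO control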;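 as to 0.01 uM KAM: median log10 fold change of treatment over DMSO control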;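 as to 0.1 uM KAM: median log10 fold change of treatment over DMSO control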;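 as to 1 uM KAM: median log10 fold change of treatment over DMSO control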;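 as to 10 uM KAM: median log10 fold change of treatment over DMSO control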
Type in all cases: binding
[1] = target: T1, CHEK1 (Homo sapiens, UniProt O14757)
T1 construct: endogenous in cells; host or cells: K562
T1 sequence (O14757 1-476): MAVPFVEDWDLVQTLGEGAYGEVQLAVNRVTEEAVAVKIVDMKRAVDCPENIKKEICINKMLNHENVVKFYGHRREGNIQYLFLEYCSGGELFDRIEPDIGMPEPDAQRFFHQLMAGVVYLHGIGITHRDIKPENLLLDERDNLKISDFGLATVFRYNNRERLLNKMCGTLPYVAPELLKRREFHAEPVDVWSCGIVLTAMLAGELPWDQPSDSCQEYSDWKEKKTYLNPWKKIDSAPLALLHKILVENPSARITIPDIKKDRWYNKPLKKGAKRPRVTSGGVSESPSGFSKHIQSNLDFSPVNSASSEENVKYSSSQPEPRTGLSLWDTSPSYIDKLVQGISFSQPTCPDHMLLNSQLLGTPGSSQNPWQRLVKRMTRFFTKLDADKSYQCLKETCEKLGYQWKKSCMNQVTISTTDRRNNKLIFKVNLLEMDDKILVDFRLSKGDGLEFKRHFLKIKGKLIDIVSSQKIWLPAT
Method: (§1) Supplement 12953_2017_125_MOESM1_ESM.zip/MS_Supp Info.xlsx, sheet "KAM" | column: 10 uM KAM; 1 uM KAM; 0.1 uM KAM; 0.01 uM KAM; 0.001 uM KAM; RB50

[2] = target: T2, EIF2AK4 (Homo sapiens, UniProt Q9P2K8);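 as to 0.001 uM KAM: median log10 fold change of treatment over DMSO control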;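 as to 0.01 uM KAM: median log10 fold change of treatment over DMSO control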;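 as to 0.1 uM KAM: median log10 fold change of treatment over DMSO control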;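 as to 1 uM KAM: median log10 fold change of treatment over DMSO control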;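 as to 10 uM KAM: median log10 fold change of treatment over DMSO control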
T2 construct: endogenous in cells; host or cells: K562
Method: as §1

[3] = target: T3, FER (Homo sapiens, UniProt P16591)
T3 construct: endogenous in cells; host or cells: K562 lysate
Method: as §1

[4] = target: T4, TGFBR1 (Homo sapiens, UniProt P36897)
T4 construct: endogenous in cells; host or cells: K562
T4 sequence (P36897 34-503): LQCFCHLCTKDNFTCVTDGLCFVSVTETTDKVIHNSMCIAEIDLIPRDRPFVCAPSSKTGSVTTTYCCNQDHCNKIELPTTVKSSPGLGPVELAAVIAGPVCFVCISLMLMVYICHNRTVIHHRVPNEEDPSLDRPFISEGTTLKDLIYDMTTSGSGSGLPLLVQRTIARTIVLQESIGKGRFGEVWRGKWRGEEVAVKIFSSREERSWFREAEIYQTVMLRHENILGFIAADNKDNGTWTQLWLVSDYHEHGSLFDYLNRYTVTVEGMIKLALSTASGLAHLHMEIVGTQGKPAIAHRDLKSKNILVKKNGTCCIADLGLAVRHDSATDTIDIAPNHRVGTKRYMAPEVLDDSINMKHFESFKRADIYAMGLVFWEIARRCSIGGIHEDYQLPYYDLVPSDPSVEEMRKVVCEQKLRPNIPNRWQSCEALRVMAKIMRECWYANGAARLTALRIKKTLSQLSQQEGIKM
Method: as §1

[5] = target: T5, TNK1 (Homo sapiens, UniProt Q13470)
T5 construct: endogenous in cells; host or cells: K562
T5 sequence (Q13470 1-666): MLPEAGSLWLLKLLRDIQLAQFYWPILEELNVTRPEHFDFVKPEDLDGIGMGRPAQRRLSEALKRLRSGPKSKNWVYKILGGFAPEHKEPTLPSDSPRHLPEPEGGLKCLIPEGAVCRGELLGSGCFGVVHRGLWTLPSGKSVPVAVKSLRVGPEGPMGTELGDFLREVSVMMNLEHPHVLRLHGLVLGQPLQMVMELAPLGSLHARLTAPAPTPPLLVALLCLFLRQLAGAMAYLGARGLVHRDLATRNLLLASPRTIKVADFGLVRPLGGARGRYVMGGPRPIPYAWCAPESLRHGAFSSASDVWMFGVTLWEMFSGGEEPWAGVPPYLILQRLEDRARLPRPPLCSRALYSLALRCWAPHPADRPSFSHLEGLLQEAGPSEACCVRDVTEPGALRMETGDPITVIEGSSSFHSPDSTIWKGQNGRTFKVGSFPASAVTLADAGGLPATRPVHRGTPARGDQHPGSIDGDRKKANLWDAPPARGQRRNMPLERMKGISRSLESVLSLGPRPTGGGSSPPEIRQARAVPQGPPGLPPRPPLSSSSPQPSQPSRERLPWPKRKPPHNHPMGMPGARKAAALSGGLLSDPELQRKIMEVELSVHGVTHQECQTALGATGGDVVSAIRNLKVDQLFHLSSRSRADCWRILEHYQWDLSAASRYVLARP
Method: as §1

[6] = read-out: RB50 (the source's name)

T2 sequence (Q9P2K8 whole entry): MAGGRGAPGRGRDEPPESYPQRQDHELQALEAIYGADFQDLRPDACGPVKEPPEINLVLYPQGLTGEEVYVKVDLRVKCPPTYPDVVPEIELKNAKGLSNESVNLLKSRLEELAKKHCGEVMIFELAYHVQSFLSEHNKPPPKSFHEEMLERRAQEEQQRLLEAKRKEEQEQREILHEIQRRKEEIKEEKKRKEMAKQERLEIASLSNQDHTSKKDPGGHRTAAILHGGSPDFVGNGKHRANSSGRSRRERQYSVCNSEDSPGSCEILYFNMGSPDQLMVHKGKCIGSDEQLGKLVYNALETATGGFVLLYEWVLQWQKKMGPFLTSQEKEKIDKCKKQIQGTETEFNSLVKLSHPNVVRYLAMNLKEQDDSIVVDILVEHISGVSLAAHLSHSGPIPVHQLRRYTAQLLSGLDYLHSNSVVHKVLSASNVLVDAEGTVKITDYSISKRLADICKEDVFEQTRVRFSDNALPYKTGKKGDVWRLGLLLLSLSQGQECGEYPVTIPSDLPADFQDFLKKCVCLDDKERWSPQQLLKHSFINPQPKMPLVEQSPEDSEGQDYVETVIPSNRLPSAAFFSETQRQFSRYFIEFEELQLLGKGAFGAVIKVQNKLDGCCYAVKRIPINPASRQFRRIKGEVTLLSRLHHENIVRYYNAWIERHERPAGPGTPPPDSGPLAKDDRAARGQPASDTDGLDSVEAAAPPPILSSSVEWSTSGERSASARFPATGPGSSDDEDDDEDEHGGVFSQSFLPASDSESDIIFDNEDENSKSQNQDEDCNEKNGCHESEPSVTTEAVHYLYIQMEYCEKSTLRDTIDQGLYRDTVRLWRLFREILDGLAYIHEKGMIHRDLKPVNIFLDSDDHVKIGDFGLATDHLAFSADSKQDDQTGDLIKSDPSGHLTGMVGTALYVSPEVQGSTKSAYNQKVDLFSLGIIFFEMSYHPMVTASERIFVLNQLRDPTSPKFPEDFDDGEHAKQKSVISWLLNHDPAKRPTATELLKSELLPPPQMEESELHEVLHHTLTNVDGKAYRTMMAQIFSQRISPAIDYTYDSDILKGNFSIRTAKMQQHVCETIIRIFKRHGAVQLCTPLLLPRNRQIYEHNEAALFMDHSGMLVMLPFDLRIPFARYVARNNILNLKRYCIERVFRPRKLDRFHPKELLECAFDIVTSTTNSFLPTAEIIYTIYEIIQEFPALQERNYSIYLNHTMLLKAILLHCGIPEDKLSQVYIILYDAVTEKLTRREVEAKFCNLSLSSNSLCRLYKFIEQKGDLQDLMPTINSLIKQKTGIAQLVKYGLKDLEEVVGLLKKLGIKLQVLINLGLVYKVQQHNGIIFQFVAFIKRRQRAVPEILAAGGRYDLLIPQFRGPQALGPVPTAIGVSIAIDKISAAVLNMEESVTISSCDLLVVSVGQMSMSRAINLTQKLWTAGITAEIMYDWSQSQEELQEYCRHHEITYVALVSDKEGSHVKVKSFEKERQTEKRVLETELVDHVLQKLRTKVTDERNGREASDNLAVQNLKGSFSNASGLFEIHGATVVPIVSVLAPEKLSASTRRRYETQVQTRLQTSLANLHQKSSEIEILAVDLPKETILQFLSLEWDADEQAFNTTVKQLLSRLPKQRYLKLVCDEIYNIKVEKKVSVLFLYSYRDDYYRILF
T3 sequence (P16591 whole entry): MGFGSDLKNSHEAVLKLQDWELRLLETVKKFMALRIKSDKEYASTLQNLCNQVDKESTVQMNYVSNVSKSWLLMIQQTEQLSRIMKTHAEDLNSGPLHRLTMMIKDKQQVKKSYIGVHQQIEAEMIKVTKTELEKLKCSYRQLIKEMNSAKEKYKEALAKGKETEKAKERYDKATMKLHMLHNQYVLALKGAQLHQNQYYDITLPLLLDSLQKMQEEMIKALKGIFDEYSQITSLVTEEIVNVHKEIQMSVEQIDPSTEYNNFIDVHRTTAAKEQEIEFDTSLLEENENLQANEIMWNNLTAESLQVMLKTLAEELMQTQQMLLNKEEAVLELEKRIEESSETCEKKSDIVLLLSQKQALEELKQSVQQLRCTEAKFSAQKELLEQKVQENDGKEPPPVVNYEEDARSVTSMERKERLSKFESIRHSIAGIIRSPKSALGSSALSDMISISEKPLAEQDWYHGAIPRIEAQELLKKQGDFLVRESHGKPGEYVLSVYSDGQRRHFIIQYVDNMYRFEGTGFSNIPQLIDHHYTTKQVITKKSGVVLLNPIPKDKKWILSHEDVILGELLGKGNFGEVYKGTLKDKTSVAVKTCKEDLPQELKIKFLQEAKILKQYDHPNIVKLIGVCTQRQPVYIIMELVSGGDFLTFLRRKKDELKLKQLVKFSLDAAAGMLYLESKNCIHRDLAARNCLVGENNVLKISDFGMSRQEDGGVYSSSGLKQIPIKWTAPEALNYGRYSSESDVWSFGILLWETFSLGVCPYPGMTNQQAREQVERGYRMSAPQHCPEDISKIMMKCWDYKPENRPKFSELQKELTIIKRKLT

N#CCc1ccc(Nc2nc(NCCCN)cc(Nc3cc(C4CC4)[nH]n3)n2)cc1 [KAM]
median Log10 fold change ([1]; 0.001 uM KAM): -0.01146 | median Log10 fold change ([1]; 0.01 uM KAM): -0.009061 | median Log10 fold change ([1]; 0.1 uM KAM): -0.1025 | median Log10 fold change ([1]; 1 uM KAM): -0.2953 | median Log10 fold change ([1]; 10 uM KAM): -0.4632 | IC50 [1, 6]: 1290 nM | IC50 ([2]; KAM 0.001-10 uM, read-out: RB50 (the source's name)): > 10000 nM | 0.001 uM KAM ([2]; relative to 0 uM KAM = 0): -0.0489 | 0.01 uM KAM ([2]; relative to 0 uM KAM = 0): 0.01964 | 0.1 uM KAM ([2]; relative to 0 uM KAM = 0): -0.07688 | 1 uM KAM ([2]; relative to 0 uM KAM = 0): -0.1098 | 10 uM KAM ([2]; relative to 0 uM KAM = 0): -0.203 | median Log10 fold change ([3]; 0.001 uM KAM): -0.01643 | median Log10 fold change ([3]; 0.01 uM KAM): -0.02602 | median Log10 fold change ([3]; 0.1 uM KAM): -0.1873 | median Log10 fold change ([3]; 1 uM KAM): -0.4903 | median Log10 fold change ([3]; 10 uM KAM): -0.6195 | IC50 [3, 6]: 319 nM | median Log10 fold change ([4]; 0.001 uM KAM): 0.003086 | median Log10 fold change ([4]; 0.01 uM KAM): -0.03819 | median Log10 fold change ([4]; 0.1 uM KAM): -0.2662 | median Log10 fold change ([4]; 1 uM KAM): -0.4673 | median Log10 fold change ([4]; 10 uM KAM): -0.5096 | IC50 [4, 6]: 202 nM | median Log10 fold change ([5]; 0.001 uM KAM): -0.003814 | median Log10 fold change ([5]; 0.01 uM KAM): -0.02527 | median Log10 fold change ([5]; 0.1 uM KAM): -0.2865 | median Log10 fold change ([5]; 1 uM KAM): -0.4389 | median Log10 fold change ([5]; 10 uM KAM): -0.4693 | IC50 [5, 6]: 199 nM
